Reference: paper PMC7857503, “Multivalent lipid targeting by the calcium-independent C2A domain of synaptotagmin-like protein 4/granuphilin” (The Journal of Biological Chemistry, 2020)

Molecular target: T1, Slp-4 C2A domain (synaptotagmin-like protein 4/granuphilin) (Homo sapiens, UniProt Q96C24)
T1 construct: gene SYTL4; C2A domain G352-S494; N-terminal GST cleaved by thrombin; E. coli BL21(DE3); cation-exchange purified, unmodified main peak
T1 sequence (Q96C24 352-494): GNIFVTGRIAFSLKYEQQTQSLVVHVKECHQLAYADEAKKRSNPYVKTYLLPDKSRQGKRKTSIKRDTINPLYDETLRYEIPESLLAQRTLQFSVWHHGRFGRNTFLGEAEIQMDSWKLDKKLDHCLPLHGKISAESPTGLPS
Assay: Trp-to-dansyl FRET, competitive displacement of protein from dansyl-PE liposomes
Type: binding
Settings: read-out: IC50 for IP6 (μM) ^a

IC50: 620 ± 80 µM
SMILES: O=P(O)(O)O[C@H]1[C@H](OP(=O)(O)O)[C@@H](OP(=O)(O)O)[C@H](OP(=O)(O)O)[C@@H](OP(=O)(O)O)[C@H]1OP(=O)(O)O [IP6, D-myo-inositol-(1,2,3,4,5,6)-hexakisphosphate]
